# pIC50: −log10 of the molar value. Where “and” joins values, the source holds several entries; their conditions need not be identical. Identical values can stand only once.
# Experiments:
# [1] = target: T1, PTP domain of SHP1 fused to GST (Homo sapiens, UniProt P29350); experiment: phosphatase assay with DiFMUP substrate, GST-PTP of SHP1; type: biochemical; details: DiFMUP 20 μM, 30° C., pH7.0
# T1 construct: The PTP domains of SHP2 and SHP1 fused to glutathione-S-transferase (GST-PTPs) were expressed in E. coli; GST (N); made in house; host or cells: E. coli
# T1 sequence (P29350 244-515 limits assumed): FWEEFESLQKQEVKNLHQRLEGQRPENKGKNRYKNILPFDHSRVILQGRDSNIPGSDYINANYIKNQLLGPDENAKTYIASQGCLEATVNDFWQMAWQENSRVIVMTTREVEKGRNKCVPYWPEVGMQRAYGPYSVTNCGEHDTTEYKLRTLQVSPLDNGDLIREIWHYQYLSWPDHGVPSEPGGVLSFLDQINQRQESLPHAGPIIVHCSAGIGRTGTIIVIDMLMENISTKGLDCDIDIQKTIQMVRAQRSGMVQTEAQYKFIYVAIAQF
# Protocol: (§1) The effect of CNBD on the SHP2 phosphatase activity was tested using the artificial substrate DiFMUP (6,8-difluoro-4-methylumbelliferyl) at a concentration of 20 μM, which is commonly used in phosphatase assays. CNBDA concentrations of 1.94 mM, 194 μM, 97 μM, 48.5 μM, 24.25 μM, 19.4 μM, 12.9 μM, and 1.94 μM in water were used in the analysis. The PTP domains of SHP2 and SHP1 fused to glutathione-S-transferase (GST-PTPs) were expressed in E. coli using a standard protein expression protocol and purified on glutathione sepharose beads as recommended by the manufacturer (Pharmacia), and quantified by measuring absorbance at 280 nm and comparison with BSA standards. Reactions were performed at 30° C. in 100 μl volume of PTPase buffer containing 25 mM Tris-HCl pH7.0, 50 mM NaCl, 2 mM EDTA and 10 mM dithiothreitol (DTT). Change in absorbance (production of DiFMU, dephosphorylated form of DiFMUP) was followed in a plate-reading visible spectrophotometer at 450 nm.
# MDA-MB468 cells [2] = experiment: mammosphere formation in suspension culture, MDA-MB468; type: cell-based
# Protocol: (§2) Finally, the effect of CNBDA on the above mentioned breast cancer cells (BT474 and MDA-MB468) was evaluated by the mammosphere formation assay in which cells with stem-like properties (including cancer stem cells) only can survive and form these structures. Briefly, cells were cultured in ultra-low adherence plates (1×10^6 cells per 6 cm plate) in a medium containing serum-free DMEM, 1 μg/ml hydrocortisone, 10 μg/ml insulin, 10 ng/ml EGF, 10 ng/ml FGF, 5 ng/ml heparin, and B27 (Invitrogen). After 10 days of culture, primary mammosphere formation was determined by observation under a microscope at which time pictures of mammospheres was taken at 4×objective. Next, the primary mammospheres were collected by centrifugation at 1000 rpm, dissociated to single cells by trypsination and pipetting, and re-cultured under same conditions to observe effect of SHP2 silencing on secondary mammosphere-forming capacity. Pictures of secondary cultures also were taken after 10 days at 4×objective. […] Similar to the anchorage-independent growth studies, the concentration of CNBDA that led to exhaustion of mammosphere formation was 4-5 fold lower than the amount needed for cell killing in the 2D cultures.
# (§3) Note than the number and size of mammospheres decreases as the concentration of CNBDA increases.
# BT474 cells [3] = experiment: mammosphere formation in suspension culture, BT474; type: cell-based
# Protocol: as §2, §3
# [4] = target: T2, PTP domain of SHP2 fused to GST (Homo sapiens, UniProt Q06124); experiment: phosphatase assay with DiFMUP substrate, GST-PTP of SHP2; type: biochemical
# T2 construct: The PTP domains of SHP2 and SHP1 fused to glutathione-S-transferase (GST-PTPs) were expressed in E. coli; GST (N); made in house; host or cells: E. coli
# T2 sequence (Q06124 247-517 limits assumed): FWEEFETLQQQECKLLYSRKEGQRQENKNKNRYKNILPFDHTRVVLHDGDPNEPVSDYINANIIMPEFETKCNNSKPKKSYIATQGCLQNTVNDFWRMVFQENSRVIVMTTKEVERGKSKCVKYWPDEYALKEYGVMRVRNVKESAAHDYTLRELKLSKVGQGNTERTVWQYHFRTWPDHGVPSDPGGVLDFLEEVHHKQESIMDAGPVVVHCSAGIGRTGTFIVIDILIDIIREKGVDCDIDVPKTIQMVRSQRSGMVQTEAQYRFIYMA
# Protocol: as §1
# MDA-MB468 cells [5] = experiment: soft agar anchorage-independent growth, MDA-MB468; type: cell-based
# Protocol: (§4) Next, the efficacy of CNBDA was evaluated by the soft agar assay, a technique commonly used to determine ability of cells to grow in an anchorage-independent manner, one of the hall marks of a cancer cell. The HER2-positive BT474 and the HER1-positive MDA-MB468 cells were seeded in soft agar, treated with placebo or CNBDA at variable concentrations, cultured for 10 days, and their ability to form colonies was monitored by observation under a microscope. […] While the placebo-treated BT474 and MDA-MB468 cells formed larger and numerous colonies in 10 days, the CNBDA-treated counterparts formed smaller and fewer ones (FIG. 6B). In addition, the concentration of CNBDA that abolished colony formation in soft agar was at least 4-fold lower than the amount that caused cell death in 2D cultures in both cell lines (compare FIGS. 6A and 6B).
# (§5) Note than the number and size of colonies decreases as the concentration of CNBDA increases. Also note that the concentration of CNBDA that abolished colony formation in the HER2-positive BT474 breast cancer cell line is 2-fold lower than the amount used in the MDA-MB468 cells.
# [6] = tested on: HER2-positive BT474 breast cancer cell line; experiment: 2D culture cell growth and cell death, BT474; type: cell-based; details: BT474, 2D culture
# Protocol: Therefore, the anti-cancer activity of CNBDA was tested in breast cancer cells under 2-dimensional (culture plates), soft agar, and suspension cultures. Because SHP2 is an essential downstream mediator of receptor tyrosine kinase (RTK) signaling, including HER2 and HER1 [24, 25], breast cancer cells that harbor dysregulated RTK and SHP2 signaling were chosen for testing the effect of CNDBA. Accordingly, the BT474 cell line that overexpress the human epidermal growth factor receptor 2 (HER2) and the MDA-MB468 cell line that overexpress HER1 (also known as EGFR) were used. The non-transformed MCF-10A breast epithelial cells were used as a “normal” control in these studies. The BT474 cells were grown in RPMI 1640, while the MDA-MB468 cells were grown in Dulbecco's Modified Eagle's Medium (DMEM), both supplemented with 10% fetal calf serum. On the other hand, the MCF-10A cells were grown in DMEM supplemented with […] recombinant human insulin, 20 ng/ml EGF (PeproTech), […] hydrocortisone, 100 ng/ml cholera toxin (Sigma) and 5% horse serum, as described previously. All cells were grown in a 37° C. incubator supplied with 5% CO2. In the 2D culture studies, cells were treated with vehicle alone (PBS: phosphate buffered saline) or three different concentration of CNBDA. When the density of cells reached approximately 30%, each plate was treated with vehicle alone (placebo) or the indicated concentrations of CNBDA. In the HER2-positive BT474 breast cancer cell line, CNBDA suppressed cell growth at the lowest concentration used (100 ng/ml) as determined by absence of gradual increase in cell density (FIG. 6A). But, at the 72 hour time point, it was possible to see signs of cell death as evidenced by shrinkage in the extended patchy growth property of these cells. At 500 ng/ml and higher concentrations, CNBDA induced cell death within 24 hours which became more evident gradually.
# At the lowest concentration used, CNBDA was able to block cell growth and induction of cell death was apparent only after 48 hours. […]
# [7] = tested on: EGFR-amplified MDA-MB468 basal-like breast cancer cell line; experiment: 2D culture cell growth and cell death, MDA-MB468; type: cell-based; details: MDA-MB468, 2D culture
# Protocol: (§6) Therefore, the anti-cancer activity of CNBDA was tested in breast cancer cells under 2-dimensional (culture plates), soft agar, and suspension cultures. Because SHP2 is an essential downstream mediator of receptor tyrosine kinase (RTK) signaling, including HER2 and HER1 [24, 25], breast cancer cells that harbor dysregulated RTK and SHP2 signaling were chosen for testing the effect of CNDBA. Accordingly, the BT474 cell line that overexpress the human epidermal growth factor receptor 2 (HER2) and the MDA-MB468 cell line that overexpress HER1 (also known as EGFR) were used. The non-transformed MCF-10A breast epithelial cells were used as a “normal” control in these studies. The BT474 cells were grown in RPMI 1640, while the MDA-MB468 cells were grown in Dulbecco's Modified Eagle's Medium (DMEM), both supplemented with 10% fetal calf serum. On the other hand, the MCF-10A cells were grown in DMEM supplemented with […] recombinant human insulin, 20 ng/ml EGF (PeproTech), […] hydrocortisone, 100 ng/ml cholera toxin (Sigma) and 5% horse serum, as described previously. All cells were grown in a 37° C. incubator supplied with 5% CO2. […] In the HER2-positive BT474 breast cancer cell line, CNBDA suppressed cell growth at the lowest concentration used (100 ng/ml) as determined by absence of gradual increase in cell density (FIG. 6A). […]
# BT474 cells [8] = experiment: soft agar anchorage-independent growth, BT474; type: cell-based
# Protocol: as §4, §5
# [9] = tested on: non-tumorigenic MCF-10A breast epithelial cells; experiment: 2D culture cell growth, MCF-10A normal control; type: cell-based
# Protocol: as §6
smiles,measurement,setting,value
CCCCCCCCCOc1c(CCCC(=O)O)cc(-c2ccc(C(=O)O)cc2)cc1CCCC(=O)O [CNBDA],pIC50,[1],3.91
same,"concentration exhausting mammosphere formation, fold lower than amount needed for cell killing in 2D cultures",MDA-MB468 cells [2]; MDA-MB468,4-5 fold
same,mammosphere formation,"MDA-MB468 cells [2]; MDA-MB468, suspension culture, concentration dependent",suppressed mammosphere formation
same,"concentration exhausting mammosphere formation, fold lower than amount needed for cell killing in 2D cultures",BT474 cells [3]; BT474,4-5 fold
same,mammosphere formation,"BT474 cells [3]; BT474, suspension culture, concentration dependent",suppressed mammosphere formation
same,"concentration abolishing mammosphere formation in BT474, fold lower than in MDA-MB468",BT474 cells [3]; suspension culture,2 fold
same,mode of SHP2 inhibition,[4],competitive SHP2 inhibitor
same,pIC50,"[4]; DiFMUP 20 μM, 30° C., pH7.0",4.92
same,selectivity for SHP2 over SHP1,[4]; from IC50 values,10 fold
same,"concentration abolishing colony formation, fold lower than amount causing cell death in 2D culture",MDA-MB468 cells [5]; MDA-MB468,at least 4 fold
same,colony formation in soft agar,"MDA-MB468 cells [5]; MDA-MB468, 10 days, concentration dependent",suppression of colony formation
same,concentration that induced cell death within 24 hours,[6],≥ 500 ng/mL
same,time at which cell death became apparent at the lowest concentration,[6]; 100 ng/ml,72 h and > 48 h
same,concentration that suppressed cell growth (lowest used),[6]; absence of increase in cell density,100 ng/mL
same,"concentration showing effect, relative to BT474 cells",[7],double the concentration
same,minimum concentration needed to induce cell death after 48 hours,[7]; pilot studies,1 µg/mL
same,"concentration abolishing colony formation, fold lower than amount causing cell death in 2D culture",BT474 cells [8]; BT474,at least 4 fold
same,colony formation in soft agar,"BT474 cells [8]; BT474, 10 days, concentration dependent",suppression of colony formation
same,"concentration abolishing colony formation in BT474, fold lower than in MDA-MB468",BT474 cells [8]; soft agar,2 fold
same,effect on cell growth and cell death at the higher concentration used,[9]; 6 μg/ml,did not cause a significant decrease in cell growth or induce cell death
same,effect on cell growth,[9]; 2D culture,very little effect

# — patent US9932288B2, “Chemical compound for inhibition of SHP2 function and for use as an anti-cancer agent” (West Virginia University, priority 2015, dated 2018)
